According to article PMC8948292, “Combining PEGylated mito-atovaquone with MCT and Krebs cycle redox inhibitors as a potential strategy to abrogate tumor cell proliferation” (Scientific Reports, 2022):
pIC50: −log10 of the molar value. Read-outs that look alike come from different tables or passages of the source.

How the values were obtained:
MiaPaCa-2 cells [1] = test: Cell proliferation (cell confluence), IncuCyte Live-Cell Analysis System; assay type: cell-based, human; settings: for pIC50: Homo sapiens; for Cell confluence (% of control): control ~90% confluence
In short: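 MiaPaCa-2 cells in DMEM with 10% FBS, plated at 1,000 cells/well in triplicate and adhered overnight, then treated with Mito-PEG-ATO analogs. Confluence imaged label-free over several days, increase in percent confluence serving as proliferation surrogate.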

[2] = biological target: mitochondrial complex III (MiaPaCa-2 cells) (Homo sapiens, UniProt P00156); test: Complex III-dependent oxygen consumption in permeabilized cells, Seahorse XF-96; assay type: cell-based
In short: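 MiaPaCa-2 cells were treated 24 h with Mito-PEG-ATO analogs, and OCR was read on a Seahorse XF-96; basal respiration was taken in intact cells. For complex I, permeabilized cells received 10 mM pyruvate, 1.5 mM malate and 10 mM malonate; for complex III, 0.5 mM duroquinol, 1 µM rotenone and 10 mM malonate, both in mannitol/sucrose buffer. IC50 values were derived from the OCR data.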

MiaPaCa-2 cells [3] = test: Intracellular oxidants: HPLC of hydroethidine (HE) oxidation products; assay type: cell-based, human
Procedure: Hydroethidine (HE) or dihydroethidium was used as a fluorogenic probe to assess the cellular generation of superoxide and other peroxidatic oxidants[36],[37]. Cells were treated for 24 h with Mito-PEG5-ATO alone or in combination with AZD-3965 or CPI-613, followed by 1 h incubation with HE (10 µM). Cells were harvested and the cell pellet stored at − 80 °C until the day of high-performance liquid chromatography (HPLC) analysis. Sample preparation and HPLC analysis were performed as previously reported[32],[36]. 2-OH-E^+ was used as a specific marker for superoxide, and E^+-E^+ was used as a specific marker for intracellular one-electron oxidants[36],[37].
HE was purchased from Invitrogen (Carlsbad, CA). Stock solutions (20 mM and 5 mM, respectively) were prepared in deoxygenated DMSO (dimethyl sulfoxide) and stored at − 80 °C until use. Ethidium cation (bromide salt) was purchased from Sigma-Aldrich. The hydroxylated oxidation products from HE (2-OH-E^+) were prepared by reacting the probes with Fremy’s salt as previously described in detail[70],[71]. The dimeric products were prepared by reacting the probes with excess potassium ferricyanide, as detailed elsewhere. Synthesized standards of all oxidation products of HE were purified by HPLC. HPLC-based measurements of HE and its oxidation products were performed using an Agilent 1100 system equipped with absorption and fluorescence detectors and refrigerated autosampler (4 °C). The samples (50 µL) were injected into a reverse phase column (Phenomenex, Kinetex C18, 100 mm × 4.6 mm, 2.6 µm) equilibrated with 20% acetonitrile and 80% water containing 0.1% trifluoroacetic acid. The compounds were eluted by increasing the content of acetonitrile from 20 to 56% over 4.5 min at a flow rate of 1.5 mL/min. The absorption detector was used to measure 3,8-diamino-6-phenylphenanthridine (at 290 nm; retention time: 2.5 min), HE-E^+ (at 290 nm; retention time: 4.1 min), E^+-E^+ (at 290 nm; retention time: 4.3 min), and HE (at 370 nm; retention time: 1.6 min). A fluorescence detector (initial excitation at 358 nm and emission at 440 nm) was used to monitor HE (when present at low concentrations). At 2.3 min after injection, the fluorescence parameters were changed (excitation at 490 nm and emission at 567 nm) for sensitive detection of 2-OH-E^+ (retention time: 3.2 min) and E^+ (retention time: 3.3 min).

Sequence of mitochondrial complex III (MiaPaCa-2 cells) (P00156 whole entry): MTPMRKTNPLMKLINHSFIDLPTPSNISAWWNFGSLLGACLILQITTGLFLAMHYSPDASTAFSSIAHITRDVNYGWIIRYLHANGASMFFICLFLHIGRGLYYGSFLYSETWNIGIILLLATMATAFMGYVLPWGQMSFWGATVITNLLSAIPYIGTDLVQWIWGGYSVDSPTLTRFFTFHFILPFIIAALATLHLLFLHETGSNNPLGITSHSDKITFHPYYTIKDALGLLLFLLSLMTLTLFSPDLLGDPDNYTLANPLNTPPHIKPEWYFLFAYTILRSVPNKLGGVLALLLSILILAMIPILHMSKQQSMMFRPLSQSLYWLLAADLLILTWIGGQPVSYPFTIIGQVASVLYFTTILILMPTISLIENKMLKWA
Sequence of mitochondrial complex III (MiaPaCa-2 cells) (P47985 whole entry partner): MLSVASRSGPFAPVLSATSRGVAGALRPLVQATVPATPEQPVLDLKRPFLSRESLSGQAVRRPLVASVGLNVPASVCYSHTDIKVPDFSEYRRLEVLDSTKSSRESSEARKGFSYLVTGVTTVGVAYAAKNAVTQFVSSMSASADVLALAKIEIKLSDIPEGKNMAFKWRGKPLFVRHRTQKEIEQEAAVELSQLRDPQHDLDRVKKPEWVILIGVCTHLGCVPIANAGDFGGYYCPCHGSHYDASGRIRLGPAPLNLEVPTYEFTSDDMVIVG

Cc1[nH]nc(C(F)(F)F)c1Cc1sc2c(c1C(=O)N1C[C@](C)(O)CO1)c(=O)n(C)c(=O)n2C(C)C [AZD-3965]
pIC50 (MiaPaCa-2 cells [1]; MIA PaCa-2, read-out: IC50 (cell proliferation) without Mito-PEG5-ATO): 3.56
Inhibition of cell proliferation in combination with Mito-PEG5-ATO (combination index) (MiaPaCa-2 cells [1]; MiaPaCa-2 cells, combined with Mito-PEG5-ATO): synergistic
% changes of IC50 with vs without Mito-PEG5-ATO (MiaPaCa-2 cells [1]; MiaPaCa-2 cells, heat map Fig. 7d): 52.5%
Effect on the decrease in complex III-induced oxygen consumption induced by Mito-PEG5-ATO ([2]; MiaPaCa-2 cells, with Mito-PEG5-ATO): Neither AZD-3965 nor V-9302 significantly affected
Intracellular oxidant-induced HE-derived products, in combination with Mito-PEG5-ATO (MiaPaCa-2 cells [3]; 24 h, with Mito-PEG5-ATO 0.05 µM, AZD-3965 200 µM or CPI-613 200 µM): modest and additive increase

O=C1C(OCCOCCOCCOCCOCC[P+](c2ccccc2)(c2ccccc2)c2ccccc2)=C([C@H]2CC[C@H](c3ccc(Cl)cc3)CC2)C(=O)c2ccccc21.[Br-] [Mito-PEG5-ATO, [14-((3-(trans-4-(4-chlorophenyl)cyclohexyl)-1,4-dioxo-1,4-dihydronaphthalen-2-yl)oxy)-3,6,9,12-tetraoxatetradecyl]triphenylphosphonium bromide]
pIC50 (MiaPaCa-2 cells [1]; MIA PaCa-2, read-out: IC50, antiproliferative): 7.42
Cell confluence (% of control) (MiaPaCa-2 cells [1]; MiaPaCa-2 cells, 0.003 µM): 94.98 % of control
Cell confluence (% of control) (MiaPaCa-2 cells [1]; MiaPaCa-2 cells, 0.01 µM): 93.81 % of control
Cell confluence (% of control) (MiaPaCa-2 cells [1]; MiaPaCa-2 cells, 0.03 µM): 74.87 % of control
Cell confluence (% of control) (MiaPaCa-2 cells [1]; MiaPaCa-2 cells, 0.05 µM): 41.88 % of control
Cell confluence (% of control) (MiaPaCa-2 cells [1]; MiaPaCa-2 cells, 0.1 µM): 7.64 % of control
Cell confluence (% of control) (MiaPaCa-2 cells [1]; MiaPaCa-2 cells, 0.2 µM): 4.52 % of control
Cell confluence (% of control) (MiaPaCa-2 cells [1]; MiaPaCa-2 cells, 0.3 µM): 4.07 % of control
Cell confluence (% of control) (MiaPaCa-2 cells [1]; MiaPaCa-2 cells, 0.5 µM): 3.75 % of control
Cell confluence (% of control) (MiaPaCa-2 cells [1]; MiaPaCa-2 cells, 1 µM): 3.53 % of control
Cell confluence (% of control) (MiaPaCa-2 cells [1]; MiaPaCa-2 cells, 3 µM): 2.64 % of control
Cell confluence (% of control) (MiaPaCa-2 cells [1]; MiaPaCa-2 cells, 10 µM): 2.40 % of control
Complex III activity (OCR, % of control) ([2]; 0.003 µM): 94.9 % of control
Complex III activity (OCR, % of control) ([2]; 0.01 µM): 94.3 % of control
Complex III activity (OCR, % of control) ([2]; 0.03 µM): 84.2 % of control
Complex III activity (OCR, % of control) ([2]; 0.05 µM): 89.9 % of control
Complex III activity (OCR, % of control) ([2]; 0.075 µM): 89.1 % of control
Complex III activity (OCR, % of control) ([2]; 0.1 µM): 87.5 % of control
Complex III activity (OCR, % of control) ([2]; 0.3 µM): 61.6 % of control
Complex III activity (OCR, % of control) ([2]; 0.5 µM): 38.4 % of control
Complex III activity (OCR, % of control) ([2]; 1 µM): 17.8 % of control
Complex III activity (OCR, % of control) ([2]; 3 µM): 8.0 % of control
pIC50 ([2]; MiaPaCa-2 cells, 24 h treatment, antimycin A-inhibitable OCR, read-out: IC50, complex III-induced oxygen consumption (Complex III activity)): 6.41
HE oxidation products 2-OH-E+, E+ and E+-E+ (MiaPaCa-2 cells [3]; 24 h treatment, then HE 10 µM 1 h): slight but significant increase
